Experimental data taken from BindingDB's records for doi:10.1021/jm990039i (Southern Research Institute, 1999).
pKi: −log10 of the molar value.

Assay: The opioid antagonist potency against PL-107 mu-opioid receptor from guinea pig ileum(GPI).Ke (nM) = [antagonist]/(IC50 ratio-1)

## Oc1ccc2c3c1O[C@H]1c4ncc(-c5ccccc5)cc4C[C@@]4(O)[C@@H](C2)N(CC2CC2)CC[C@]314
  pKi: 7.38
